Results as given in patent US8802597B2, “Herbicidal pyrimidines” (E I du Pont de Nemours and Company, priority 2003, dated 2014).

Key:
Experiment in all cases: Test G pre/postemergence
Assay type in all cases: in vivo
[1] = system: Italian ryegrass (Lolium multiflorum)
Description: (§1) Seeds or nutlets of plant species selected from bermudagrass (Cynodon dactylon), Surinam grass (Brachiaria decumbens), large crabgrass (Digitaria sanguinalis), green foxtail (Setaria viridis), goosegrass (Eleusine indica), johnsongrass (Sorghum halepense), kochia (Kochia scoparia), pitted morningglory (Ipomoea lacunosa), purple nutsedge (Cyperus rotundus), common ragweed (Ambrosia elatior), black mustard (Brassica nigra), guineagrass (Panicum maximum), dallisgrass (Paspalum dilatatum), barnyardgrass (Echinochloa crus-galli), southern sandbur (Cenchrus echinatus), common sowthistle (Sonchus oleraceous), prickly sida (Sida spinosa), Italian ryegrass (Lolium multiflorum), common purslane (Portulaca oleracea), broadleaf signalgrass (Brachiaria platyphylla), common groundsel (Senecio vulgaris), common chickweed (Stellaria media), tropical spiderwort (Commelina benghalensis), annual bluegrass (Poa annua), downy bromegrass (Bromus tectorum), itchgrass (Rottboellia cochinchinensis), quackgrass (Elytrigia repens), Canada horseweed (Conyza canadensis), field bindweed (Convolvulus arvensis), spanishneedles (Bidens bipinnata), common mallow (Malva sylvestris), and Russian thistle (Salsola kali) were planted and treated preemergence with test chemicals formulated in a non-phytotoxic solvent mixture which included a surfactant.
(§2) At the same time, plants selected from these weed species were treated with postemergence applications of some of the test chemicals formulated in the same manner. Plants ranged in height from 2 to 18 cm (1- to 4-leaf stage) for postemergence treatments. Treated plants and controls were maintained in a greenhouse for 12 to 21 days, after which time all species were compared to controls and visually evaluated.
(§3) Plant response ratings, summarized in Table G, are based on a scale of 0 to 100 where 0 is no effect and 100 is complete control. A dash (-) response means no test result.

[2] = system: annual bluegrass (Poa annua)
Description: as §1, §2, §3

[3] = system: barnyardgrass (Echinochloa crus-galli)
Description: as §1, §2, §3

[4] = system: black mustard (Brassica nigra)
Description: as §1, §2, §3

[5] = system: broadleaf signalgrass (Brachiaria platyphylla)
Description: as §1, §2, §3

[6] = system: common mallow (Malva sylvestris)
Description: as §1, §2, §3

[7] = system: green foxtail (Setaria viridis)
Description: as §1, §2, §3

[8] = system: itchgrass (Rottboellia cochinchinensis)
Description: as §1, §2, §3

[9] = system: johnsongrass (Sorghum halepense)
Description: as §1, §2, §3

[10] = system: large crabgrass (Digitaria sanguinalis)
Description: as §1, §2, §3

[11] = system: pitted morningglory (Ipomoea lacunosa)
Description: as §1, §2, §3

[12] = system: prickly sida (Sida spinosa)
Description: as §1, §2, §3

[13] = system: southern sandbur (Cenchrus echinatus)
Description: as §1, §2, §3

[14] = system: tropical spiderwort (Commelina benghalensis)
Description: as §1, §2, §3

[15] = Postemergence, 250 g ai/ha, scale 0 to 100
[16] = Postemergence, 500 g ai/ha, scale 0 to 100
[17] = Postemergence, 62 g ai/ha, scale 0 to 100
[18] = Postemergence, 125 g ai/ha, scale 0 to 100
[19] = Postemergence, 375 g ai/ha, scale 0 to 100
[20] = Preemergence, 62 g ai/ha, scale 0-100
[21] = Preemergence, 125 g ai/ha, scale 0-100
[22] = Preemergence, 250 g ai/ha, scale 0-100
[23] = Preemergence, 500 g ai/ha, scale 0-100
[24] = Preemergence, 500 g ai/ha, scale 0 to 100
[25] = Preemergence, 375 g ai/ha, scale 0 to 100

CCOC(=O)c1nc(C2CC2)nc(N)c1Br [Compound 1, ethyl 6-amino-5-bromo-2-cyclopropyl-4-pyrimidinecarboxylate]
85: Plant response rating, Bluegrass [2, 22] | Plant response rating, Bluegrass [2, 24] | Plant response rating, Black Mustard [4, 22] | Plant response rating, Signalgrass [5, 16] | Plant response rating, Itchgrass [8, 23] | Plant response rating, Sandbur [13, 23] | Plant response rating, Sandbur [13, 24]
80: Plant response rating, Black Mustard [4, 21] | Plant response rating, Mallow [6, 21] | Plant response rating, Itchgrass [8, 22]
20: Plant response rating, Bluegrass [2, 17] | Plant response rating, Barnyardgrass [3, 21] | Plant response rating, Signalgrass [5, 17] | Plant response rating, Foxtail, Green [7, 18] | Plant response rating, Itchgrass [8, 17] | Plant response rating, Johnsongrass [9, 20] | Plant response rating, Crabgrass, Large [10, 20]
30: Plant response rating, Ryegrass, Italian [1, 22] | Plant response rating, Bluegrass [2, 18] | Plant response rating, Bluegrass [2, 21] | Plant response rating, Black Mustard [4, 20] | Plant response rating, Foxtail, Green [7, 15] | Plant response rating, Itchgrass [8, 21] | Plant response rating, Crabgrass, Large [10, 21] | Plant response rating, Sandbur [13, 17] | Plant response rating, Sandbur [13, 21]
100: Plant response rating, Black Mustard [4, 24] | Plant response rating, Black Mustard [4, 25] | Plant response rating, Morningglory [11, 15] | Plant response rating, Morningglory [11, 16] | Plant response rating, Morningglory [11, 17] | Plant response rating, Morningglory [11, 18] | Plant response rating, Morningglory [11, 19] | Plant response rating, Morningglory [11, 21] | Plant response rating, Morningglory [11, 22] | Plant response rating, Morningglory [11, 23] | Plant response rating, Morningglory [11, 24] | Plant response rating, Prickly Sida [12, 21] | Plant response rating, Prickly Sida [12, 22] | Plant response rating, Prickly Sida [12, 23] | Plant response rating, Prickly Sida [12, 24] | Plant response rating, Spiderwort [14, 21] | Plant response rating, Spiderwort [14, 22] | Plant response rating, Spiderwort [14, 23] | Plant response rating, Spiderwort [14, 24]
95: Plant response rating, Ryegrass, Italian [1, 23] | Plant response rating, Ryegrass, Italian [1, 24] | Plant response rating, Signalgrass [5, 24] | Plant response rating, Mallow [6, 16] | Plant response rating, Mallow [6, 19] | Plant response rating, Mallow [6, 22] | Plant response rating, Mallow [6, 23] | Plant response rating, Mallow [6, 24] | Plant response rating, Johnsongrass [9, 15] | Plant response rating, Johnsongrass [9, 16] | Plant response rating, Johnsongrass [9, 19] | Plant response rating, Morningglory [11, 20] | Plant response rating, Prickly Sida [12, 16] | Plant response rating, Prickly Sida [12, 19] | Plant response rating, Sandbur [13, 15] | Plant response rating, Sandbur [13, 16] | Plant response rating, Sandbur [13, 19] | Plant response rating, Spiderwort [14, 15] | Plant response rating, Spiderwort [14, 16] | Plant response rating, Spiderwort [14, 17] | Plant response rating, Spiderwort [14, 18] | Plant response rating, Spiderwort [14, 19]
70: Plant response rating, Barnyardgrass [3, 15] | Plant response rating, Barnyardgrass [3, 19] | Plant response rating, Barnyardgrass [3, 24] | Plant response rating, Barnyardgrass [3, 25] | Plant response rating, Signalgrass [5, 21] | Plant response rating, Mallow [6, 15] | Plant response rating, Itchgrass [8, 16] | Plant response rating, Johnsongrass [9, 17] | Plant response rating, Johnsongrass [9, 18] | Plant response rating, Crabgrass, Large [10, 15] | Plant response rating, Crabgrass, Large [10, 16] | Plant response rating, Crabgrass, Large [10, 19] | Plant response rating, Prickly Sida [12, 17] | Plant response rating, Prickly Sida [12, 18] | Plant response rating, Prickly Sida [12, 20] | Plant response rating, Sandbur [13, 22] | Plant response rating, Spiderwort [14, 20]
50: Plant response rating, Bluegrass [2, 16] | Plant response rating, Bluegrass [2, 19] | Plant response rating, Barnyardgrass [3, 22] | Plant response rating, Mallow [6, 17] | Plant response rating, Mallow [6, 20] | Plant response rating, Foxtail, Green [7, 19] | Plant response rating, Foxtail, Green [7, 22] | Plant response rating, Crabgrass, Large [10, 17]
40: Plant response rating, Ryegrass, Italian [1, 15] | Plant response rating, Ryegrass, Italian [1, 16] | Plant response rating, Ryegrass, Italian [1, 19] | Plant response rating, Bluegrass [2, 15] | Plant response rating, Itchgrass [8, 18] | Plant response rating, Johnsongrass [9, 21]
90: Plant response rating, Foxtail, Green [7, 24] | Plant response rating, Foxtail, Green [7, 25] | Plant response rating, Itchgrass [8, 24] | Plant response rating, Crabgrass, Large [10, 22] | Plant response rating, Crabgrass, Large [10, 24] | Plant response rating, Crabgrass, Large [10, 25] | Plant response rating, Prickly Sida [12, 15]
10: Plant response rating, Ryegrass, Italian [1, 18] | Plant response rating, Ryegrass, Italian [1, 21] | Plant response rating, Bluegrass [2, 20] | Plant response rating, Signalgrass [5, 20] | Plant response rating, Foxtail, Green [7, 17] | Plant response rating, Foxtail, Green [7, 20] | Plant response rating, Foxtail, Green [7, 21] | Plant response rating, Itchgrass [8, 20]
60: Plant response rating, Barnyardgrass [3, 17] | Plant response rating, Barnyardgrass [3, 18] | Plant response rating, Black Mustard [4, 17] | Plant response rating, Signalgrass [5, 18] | Plant response rating, Mallow [6, 18] | Plant response rating, Foxtail, Green [7, 16] | Plant response rating, Itchgrass [8, 15] | Plant response rating, Itchgrass [8, 19] | Plant response rating, Johnsongrass [9, 22] | Plant response rating, Crabgrass, Large [10, 18] | Plant response rating, Sandbur [13, 18]
75: Plant response rating, Barnyardgrass [3, 16] | Plant response rating, Black Mustard [4, 15] | Plant response rating, Black Mustard [4, 16] | Plant response rating, Black Mustard [4, 18] | Plant response rating, Black Mustard [4, 19] | Plant response rating, Signalgrass [5, 15] | Plant response rating, Signalgrass [5, 19] | Plant response rating, Signalgrass [5, 22] | Plant response rating, Signalgrass [5, 23] | Plant response rating, Johnsongrass [9, 23] | Plant response rating, Johnsongrass [9, 24]
0: Plant response rating, Ryegrass, Italian [1, 17] | Plant response rating, Ryegrass, Italian [1, 20] | Plant response rating, Barnyardgrass [3, 20] | Plant response rating, Sandbur [13, 20]
